Test results from patent US20220104481A1, “CRYOPRESERVATION OF STEM CELLS” (TiGenix, S.A.U., priority 2019, published 2022).
Entries after “also recorded” stand apart in the source; their conditions may differ.

What was measured:
Type in all cases: cell-based, human
[1] = system: ASCs; experiment: Post-thaw treatment with NAC in plating medium: cell growth after thawing
Method: A 600 mM stock of NAC (SIGMA) was prepared in Milli-Q water (Millipore). This stock was used for pre-treatment and post-treatment by adding directly 50 μL stock solution per well into 5 mL of medium, making a final concentration of 6 mM. For 2 mM, only 16.7 μL were added per well, and in the case of 12 mM, 100 μL of stock were added. DMSO was used as the vehicle for sc79 and LY294. The effect of post-thaw treatment with different concentrations of NAC (post-thaw NAC treatment) on cell growth was also studied. ASCs were frozen (without NAC pretreatment), thawed as discussed above, and then treated with three different NAC concentrations (2, 6 and 12 mM) in complete DMEM prior to plating, and the cell numbers at day 4, 11 and 14 were analysed.

[2] = system: mature dendritic cells (mDC); experiment: Co-culture of monocytes with ASCs: mDC differentiation, activation clusters (microscopy); conditions: NAC-pretreated ASCs, donors A and B, transwell co-culture (FIGS. 10, 11)
Method: Frozen vials of PBMCs were thawed, counted and CD14^+ CD16^− monocytes were isolated using the Dynabeads Untouched Human Monocytes kit (Dynal #11350D), following the manufacturer's instructions.
Isolated CD14^+ CD16^− monocytes (see above) were plated in 5 mL of RPMIc at 1.5 million cells per 6-well (Falcon #353046), in normoxia. The following factors were added for differentiation into non-polarized M0 macrophages or further polarization into M1, M2 macrophages and mature dendritic cells (mDC) populations in monocultures (based on several publications, including Beyer et al., PLoS One (2012) 7(9): e45466; Erbel et al., J. Vis. Exp. (2013) 76: e50332; Zhou et al, 2014; Tarique et al, American Journal of Respiratory Cell and Molecular Biology 2015; 53(5):676-688.
Immature DC (iDC): RPMIc+5 ng/mL GM-SCF+10 ng/mL IL-4 for 5 days Maturation of DC (mDC): at day 5, add 40 ng/mL LPS (i.e. add 500 μL/well of RPMIc supplemented with 400 ng/mL LPS to the pre-existing media). Human recombinant GM-CSF (#100-22B) and IL-4 (#200-04) were from Peprotech. LPS (#L8274) was from SIGMA. The addition of GM-C SF and IL4 mediates the differentiation to immature dendritic cells (iDC); 5 days later addition of LPS induces the maturation of iDCs to mDCs, and after 2 days the phenotype and function of these mature DC were analysed in the presence or absence of the ASC. Co-Culture Experiments with ASCs […]

[3] = system: CD14 and CD1a on mature dendritic cells; experiment: Surface expression of CD14 and CD1a by mDC co-cultured with ASCs (flow cytometry); conditions: NAC-pretreated ASCs, donors A and B (FIG. 15)
Method: After differentiation in monoculture or co-culture in vitro (the differentiation conditions, including the cytokines used, concentrations and times of differentiation, are provided in Example 7), macrophages and mDC were harvested using 0.05% trypsin-EDTA for 10 minutes at 37° C., after supernatants were collected and frozen for future cytokine and/or HPLC analysis. After mDC were counted, they were distributed into 96-well V bottom plates for staining (Nunc #249570). Cells were incubated in Blue MACS buffer with 1% human serum for 15 minutes on ice, to block Fcγ receptor-mediated nonspecific antibody binding. Subsequently, cells were stained for 20 minutes on ice with the following antibody mixes (staining in 50 μL of 1:10 antibody dilution; except for CD64, which was 1:20 dilution): Cell viability was assessed by addition of 5 μL of 7AAD per well and staining for 10 minutes on ice, and samples were acquired in a BD Fortessa cytometer. Results were analysed in FSC Express software. The effect of NAC pretreatment (according to Example 2) on thawed ASC mediated effects on the surface expression of CD14 and CD1a on mature dendritic cells was also measured by flow cytometry. mDC are CD14-CD1a+. CD1a is the antigen-presenting molecule, and mediates the presentation of antigens by mDC to other cells of the immune system to activate their response. […]

CC(=O)N[C@@H](CS)C(=O)O [NAC, N-Acetylcysteine]
number of viable cells ([1]; post-thaw treatment with 2 mM NAC, 7 days of culture (FIG. 6)): ~6,300 cells/cm^2
number of viable cells ([1]; post-thaw treatment with 2 mM NAC, 11 days of culture (FIG. 6)): ~18,700 cells/cm^2
number of viable cells ([1]; post-thaw treatment with 2 mM NAC, 14 days of culture (FIG. 6)): ~18,300 cells/cm^2
growth rate ([1]; post-thaw treatment with 2 mM NAC, between days 7 and 11 (FIG. 6)): approximately 3100 cells/cm^2/day
cell number versus non-treated ([1]; post-thaw treatment with 2 mM NAC, sustained up to 2 weeks in culture (FIG. 6)): increase in cell number
cell density versus non-treated ([1]; post-thaw treatment with 6 mM NAC (FIG. 6)): lower cell densities
cell density versus non-treated ([1]; post-thaw treatment with 12 mM NAC (FIG. 6)): lower cell densities
ASC modulation of mDC activation (no activation clusters) [2]: not disrupted
ASC-induced formation of CD14+CD1a- regulatory mDC population [3]: does not alter the ability of thawed ASCs to induce the formation of this mDC regulatory population; also recorded: did not modify this effect
